Data as given in patent US10662229B2, “Spider venom peptides and methods of use for modulating sodium channels” (priority 2016, dated 2020).
Where a SMILES comes first, the peptide text is derived from it. Bridges are numbered along the chain shown (N, C = ends).

Experiments:
[1] = test system: motor performance of mice; test: Motor assessment, Parallel Rod Floor Test; type: in vivo; settings: i.p.; Pnc1a 3 mg/kg, PF-04856254 30 mg/kg, CNV1014802 30 mg/kg, GpTx-1 0.1 mg/kg, gabapentin 100 mg/kg
Experimental: (§1) For behavioural assessment adult male C57BL/6J mice aged 6-8 weeks were used. Animals were housed in groups of 3 or 4 per cage, under 12 h light-dark cycles and had standard rodent chow and water ad libitum.
Motor performance was assessed using the Parallel Rod Floor Test and analyzed using ANY-Maze software (Stoelting Co., version 4.70, Wood Dale, Ill., USA). […] Mice were then placed in the Parallel Rod Floor Test apparatus, and the distance travelled (m) and number of foot slips were recorded over 1 min using the ANY-Maze software. The ataxia index was calculated by dividing the number of foot slips by the distance travelled (m).

[2] = test system: carrageenan-induced mechanical and thermal allodynia in mice; test: Carrageenan model; type: in vivo; settings: naloxone methiodide 100 mg/kg i.p.
Experimental: as §1
λ-Carrageenan (Sigma-Aldrich Co.) was dissolved in phosphate buffered saline to a 1% w/v solution (prepared 24 h prior) and administered by intraplantar injection to the left hind paw of mice in a volume of 40 μL under light isoflurane (3%) anaesthesia. Behavioural assessment (mechanical and thermal thresholds) was performed 3 hours after injection of carrageenan.
Mechanical allodynia was assessed using an electronic von Frey apparatus (MouseMet Electronic von Frey, TopCat Metrology Ltd, United Kingdom). […] The force that elicited paw withdrawal was calculated using the MouseMet Software. The paw withdrawal force (PWF) was determined from the average of three tests, separated by at least 2 min.
Mice were habituated in individual mouse runs for at least 5 min prior to testing. […] Removal of the paw and/or the probe by the investigator terminates heating, and triggers display of the withdrawal temperature on the readout, without the need for the investigator to manually stop the heating or record the temperature, until the reset button is pressed. The temperature that elicited a paw withdrawal, known as the paw withdrawal temperature (PWT), was determined by a single test.

hNav1.6 = target: T1, hNav1.6 (Homo sapiens, UniProt Q9UQD0); test: FLIPR membrane potential assay, hNav1.6; type: cell-based
T1 construct: host or cells: HEK293
Summary of the method: (§2)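 Cells plated 48 h before assay, then dye-loaded (red membrane potential dye, 1× in PSS, 30 min, 37° C), then agonist added and membrane potential tracked on FLIPR^TETRA for 300 s. HEK293 stable lines expressing each hNav subtype.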

hNav1.3 = target: T2, hNav1.3 (Homo sapiens, UniProt Q9NY46); test: FLIPR membrane potential assay, hNav1.3; type: cell-based
T2 construct: host or cells: HEK293
Summary of the method: as §2

hNav1.7 [3] = target: T3, hNav1.7 (Homo sapiens, UniProt Q15858); test: Automated patch clamping (QPatch-16), hNav1.7; type: cell-based; settings: 100 nM
T3 construct: host or cells: HEK293
Experimental: HEK293 cells stably expressing hNav1.1-1.7 or CHO cells stably expressing hNav1.8 (as described in Example 3 above) were cultured in a T-175 flask in selection antibiotic-free media at 37° C. Cells were grown to 70-80% confluence and harvested using Detachin (Bio-Scientific, NSW, Australia) at 37° C. for 2 min. Dissociated cells were then resuspended in Ex-Cell ACF CHO Medium with HEPES (25 mM; Sigma-Aldrich Co.) and allowed to recover on the QStirrer for 30 min.
The extracellular solution contained in mM: NaCl 145, KCl 4, CaCl2 2, MgCl2 1, HEPES 10 and glucose 10. The pH was adjusted to 7.4 with NaOH and osmolarity was adjusted with sucrose to 305 mOsm. The intracellular solution contained in mM: CsF 140, ethylene glycol tetraacetic acid (EGTA)/CsOH 1/5, HEPES 10 and NaCl 10. The pH was adjusted to 7.3 with CsOH and osmolarity adjusted with sucrose to 320 mOsm.
Whole-cell patch-clamp experiments were performed on a QPatch-16 automated electrophysiology platform (Sophion Bioscience, Ballerup, Denmark) using 16-channel planar patch chip plates (QPlates; Sophion Bioscience) with a patch hole diameter of 1 μm and resistance of 2±0.02 MΩ with the following parameters: positioning pressure −60 mbar, minimum seal resistance 0.1 GΩ, holding potential −100 mV, holding pressure −20 mbar.
Whole-cell currents were filtered at 5 kHz and acquired at 25 kHz.
The current-voltage (IV) curve was constructed with a holding potential of −80 mV followed by a pre-pulse of −100 mV for 50 ms and a series of 50 ms step pulses that ranged from −80 to 50 mV in 5 mV increments before returning to a holding potential of −80 mV. Voltage-dependence of activation was determined as normalized Nav conductance (GNa) using: GNa=INa/(Vmemb−Vrev), where Vmemb is the membrane potential and Vrev is the reversal potential for each cell. The voltage of activation data was fitted to a Boltzmann sigmoidal curve using GraphPad Prism, version 6.0.

hNav1.7 [4] = target: T3, hNav1.7; test: FLIPR membrane potential assay, hNav1.7; type: cell-based
Summary of the method: as §2

hNav1.1 = target: T4, hNav1.1 (Homo sapiens, UniProt P35498); test: FLIPR membrane potential assay, hNav1.1; type: cell-based
T4 construct: host or cells: HEK293
Summary of the method: as §2

hNav1.2 = target: T5, hNav1.2 (Homo sapiens, UniProt Q99250); test: FLIPR membrane potential assay, hNav1.2; type: cell-based
T5 construct: host or cells: HEK293
Summary of the method: as §2

hNav1.8 = target: T6, hNav1.8 (Homo sapiens, UniProt Q9Y5Y9); test: FLIPR membrane potential assay, hNav1.8; type: cell-based
T6 construct: host or cells: HEK293
Summary of the method: as §2

hNav1.5 = target: T7, hNav1.5 (Homo sapiens, UniProt Q14524); test: FLIPR membrane potential assay, hNav1.5; type: cell-based
T7 construct: host or cells: HEK293
Summary of the method: as §2

hNav1.4 = target: T8, hNav1.4 (Homo sapiens, UniProt P35499); test: FLIPR membrane potential assay, hNav1.4; type: cell-based
T8 construct: host or cells: HEK293
Summary of the method: as §2

[5] = test system: OD1-induced spontaneous pain behaviours in mice; test: OD1 model of spontaneous pain behaviours; type: in vivo; settings: intraplantar 1 μM, co-injected with OD1
Experimental: as §1
OD1 was diluted in phosphate-buffered saline/0.1% BSA (300 nM) and administered by shallow subcutaneous (intraplantar) injection to the left hind paw of mice in a volume of 40 μL under light isoflurane (3%) anesthesia. Mice were then placed individually into polyvinyl boxes (10×10×10 cm), and spontaneous pain behavior (licks and flinches) was counted by an investigator unaware of the treatments received from video recordings for 10 min post-injection.

T3 sequence (Q15858 whole entry): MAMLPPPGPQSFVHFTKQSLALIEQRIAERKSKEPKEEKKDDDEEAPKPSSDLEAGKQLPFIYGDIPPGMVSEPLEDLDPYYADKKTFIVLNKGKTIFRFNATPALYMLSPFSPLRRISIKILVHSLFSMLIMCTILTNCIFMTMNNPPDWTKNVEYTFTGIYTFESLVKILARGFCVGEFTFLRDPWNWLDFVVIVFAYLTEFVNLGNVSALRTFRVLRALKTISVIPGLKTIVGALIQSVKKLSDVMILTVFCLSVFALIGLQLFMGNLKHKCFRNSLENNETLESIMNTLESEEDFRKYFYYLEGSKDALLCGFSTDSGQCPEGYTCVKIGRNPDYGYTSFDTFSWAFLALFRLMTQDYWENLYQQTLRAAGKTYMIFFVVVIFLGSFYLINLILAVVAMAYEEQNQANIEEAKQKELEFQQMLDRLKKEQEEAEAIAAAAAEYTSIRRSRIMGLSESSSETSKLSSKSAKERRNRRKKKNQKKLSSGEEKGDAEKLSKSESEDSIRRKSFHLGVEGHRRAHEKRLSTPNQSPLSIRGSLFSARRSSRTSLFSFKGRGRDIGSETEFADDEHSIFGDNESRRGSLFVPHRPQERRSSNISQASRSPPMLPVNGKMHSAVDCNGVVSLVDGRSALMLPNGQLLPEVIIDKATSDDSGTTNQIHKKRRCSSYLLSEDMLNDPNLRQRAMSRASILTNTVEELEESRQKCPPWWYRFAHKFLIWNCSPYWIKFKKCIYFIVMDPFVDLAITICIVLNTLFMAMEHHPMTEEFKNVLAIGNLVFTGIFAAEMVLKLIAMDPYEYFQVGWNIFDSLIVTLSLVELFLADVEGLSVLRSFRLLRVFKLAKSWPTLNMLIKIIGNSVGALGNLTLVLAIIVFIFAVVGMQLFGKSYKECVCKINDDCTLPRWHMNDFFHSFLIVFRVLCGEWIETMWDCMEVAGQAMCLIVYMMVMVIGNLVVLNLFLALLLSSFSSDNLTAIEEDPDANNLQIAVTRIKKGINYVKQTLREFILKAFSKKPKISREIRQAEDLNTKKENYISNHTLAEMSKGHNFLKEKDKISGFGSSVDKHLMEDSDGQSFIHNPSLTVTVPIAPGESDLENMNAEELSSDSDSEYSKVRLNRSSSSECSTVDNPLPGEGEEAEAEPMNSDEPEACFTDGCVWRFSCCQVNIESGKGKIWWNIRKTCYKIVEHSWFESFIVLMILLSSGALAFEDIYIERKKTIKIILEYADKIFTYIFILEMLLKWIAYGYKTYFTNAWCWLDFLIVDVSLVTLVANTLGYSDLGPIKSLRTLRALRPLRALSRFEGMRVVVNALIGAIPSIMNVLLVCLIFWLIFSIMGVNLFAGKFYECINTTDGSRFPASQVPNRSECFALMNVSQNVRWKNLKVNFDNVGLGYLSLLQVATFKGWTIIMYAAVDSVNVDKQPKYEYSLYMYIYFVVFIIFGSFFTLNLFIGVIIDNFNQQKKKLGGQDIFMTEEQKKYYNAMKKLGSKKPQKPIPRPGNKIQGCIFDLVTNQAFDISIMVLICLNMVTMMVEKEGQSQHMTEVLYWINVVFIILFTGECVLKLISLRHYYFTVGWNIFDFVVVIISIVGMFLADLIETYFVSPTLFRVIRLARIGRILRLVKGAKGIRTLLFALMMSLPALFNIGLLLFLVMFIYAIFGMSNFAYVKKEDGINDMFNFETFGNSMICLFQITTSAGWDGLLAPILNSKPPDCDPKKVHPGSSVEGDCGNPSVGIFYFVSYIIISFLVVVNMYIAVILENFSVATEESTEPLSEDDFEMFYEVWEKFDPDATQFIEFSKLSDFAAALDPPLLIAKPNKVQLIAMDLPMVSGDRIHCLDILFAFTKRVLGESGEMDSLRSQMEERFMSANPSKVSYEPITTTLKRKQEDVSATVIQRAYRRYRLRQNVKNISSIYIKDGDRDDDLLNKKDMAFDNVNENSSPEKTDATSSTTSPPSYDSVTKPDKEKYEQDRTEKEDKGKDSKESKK
T6 sequence (Q9Y5Y9 whole entry): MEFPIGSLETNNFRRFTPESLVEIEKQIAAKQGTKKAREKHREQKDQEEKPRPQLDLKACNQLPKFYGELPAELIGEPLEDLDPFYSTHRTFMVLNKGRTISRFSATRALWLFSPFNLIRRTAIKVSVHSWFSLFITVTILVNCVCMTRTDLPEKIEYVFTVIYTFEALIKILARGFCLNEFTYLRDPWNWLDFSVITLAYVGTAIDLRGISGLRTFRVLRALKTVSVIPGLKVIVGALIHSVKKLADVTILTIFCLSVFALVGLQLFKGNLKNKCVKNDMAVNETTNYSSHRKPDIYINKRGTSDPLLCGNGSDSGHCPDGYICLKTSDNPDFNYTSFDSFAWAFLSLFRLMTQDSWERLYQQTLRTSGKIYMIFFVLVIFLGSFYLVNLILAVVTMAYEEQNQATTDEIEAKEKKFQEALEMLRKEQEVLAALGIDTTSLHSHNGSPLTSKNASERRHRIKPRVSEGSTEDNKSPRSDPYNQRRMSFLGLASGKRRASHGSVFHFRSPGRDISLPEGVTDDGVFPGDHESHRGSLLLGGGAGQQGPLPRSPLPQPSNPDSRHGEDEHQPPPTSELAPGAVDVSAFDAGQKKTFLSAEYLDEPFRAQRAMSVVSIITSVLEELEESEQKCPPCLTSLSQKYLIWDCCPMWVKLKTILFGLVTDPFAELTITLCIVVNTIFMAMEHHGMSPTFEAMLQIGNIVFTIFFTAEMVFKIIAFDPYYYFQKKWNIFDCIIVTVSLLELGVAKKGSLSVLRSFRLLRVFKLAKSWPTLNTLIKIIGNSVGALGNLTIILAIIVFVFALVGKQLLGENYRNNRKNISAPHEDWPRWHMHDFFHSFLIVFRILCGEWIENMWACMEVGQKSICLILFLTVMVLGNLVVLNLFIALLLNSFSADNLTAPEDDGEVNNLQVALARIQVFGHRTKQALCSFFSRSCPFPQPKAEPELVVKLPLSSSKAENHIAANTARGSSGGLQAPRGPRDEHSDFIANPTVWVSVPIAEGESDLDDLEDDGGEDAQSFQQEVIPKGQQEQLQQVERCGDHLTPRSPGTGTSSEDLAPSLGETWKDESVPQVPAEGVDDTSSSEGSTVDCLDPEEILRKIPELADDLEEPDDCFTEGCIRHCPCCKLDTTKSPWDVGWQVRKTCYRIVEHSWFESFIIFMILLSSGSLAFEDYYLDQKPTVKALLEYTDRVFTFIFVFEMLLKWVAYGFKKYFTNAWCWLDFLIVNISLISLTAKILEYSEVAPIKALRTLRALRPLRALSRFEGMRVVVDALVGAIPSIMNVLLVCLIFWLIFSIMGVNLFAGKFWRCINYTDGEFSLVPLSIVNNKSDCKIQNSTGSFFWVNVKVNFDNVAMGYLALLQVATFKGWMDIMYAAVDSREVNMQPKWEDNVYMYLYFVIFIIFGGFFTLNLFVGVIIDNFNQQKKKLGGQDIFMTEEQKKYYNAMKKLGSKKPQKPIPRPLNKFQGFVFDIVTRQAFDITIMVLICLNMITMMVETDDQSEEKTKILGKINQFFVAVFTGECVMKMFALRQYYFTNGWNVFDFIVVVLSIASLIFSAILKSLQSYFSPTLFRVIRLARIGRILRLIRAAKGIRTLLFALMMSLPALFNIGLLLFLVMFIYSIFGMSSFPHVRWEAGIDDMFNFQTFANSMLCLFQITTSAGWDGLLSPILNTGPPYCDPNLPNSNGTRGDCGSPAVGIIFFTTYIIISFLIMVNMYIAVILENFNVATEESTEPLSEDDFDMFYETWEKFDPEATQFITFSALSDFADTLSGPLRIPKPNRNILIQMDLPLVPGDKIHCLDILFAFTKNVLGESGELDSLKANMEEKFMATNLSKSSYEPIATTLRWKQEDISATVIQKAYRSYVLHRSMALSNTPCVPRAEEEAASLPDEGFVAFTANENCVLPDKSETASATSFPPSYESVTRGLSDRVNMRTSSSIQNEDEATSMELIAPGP

In the case of `NC(=O)[C@@H]1CC[C@H](c2ccc(OCc3ccccc3F)cc2)N1` [CNV1014802, raxatrigine], the “ataxia index (foot slips per metre travelled) compared to vehicle control” value [1] is reported as “no significant effect”.

In the case of `C=CC[N+]1(C)CC[C@]23c4c5ccc(O)c4O[C@H]2C(=O)CC[C@@]3(O)[C@H]1C5` (stereo partly shown) [naloxone methiodide], the “analgesic effects of the Pnc1a/oxycodone combination on mechanical allodynia” value [2] is reported as “reversed” and the “analgesic effects of the Pnc1a/oxycodone combination on thermal allodynia” value [2] is reported as “reversed”.

`NCC1(CC(=O)O)CCCCC1` [gabapentin] was tested, and the “ataxia index (foot slips per metre travelled) compared to vehicle control” value [1] was “significant increase”.

`CSCC[C@@H]1NC(=O)[C@H](Cc2ccc(O)cc2)NC(=O)[C@H](CCCNC(=N)N)NC(=O)[C@@H](NC(=O)[C@@H](N)CC(=O)O)CSSC[C@@H]2NC(=O)[C@@H]3CSSC[C@@H](C(=O)N[C@@H](C)C(=O)N[C@@H](Cc4c[nH]c5ccccc45)C(=O)N[C@@H](CC(=O)O)C(=O)N[C@@H](Cc4ccccc4)C(=O)N[C@H](C(=O)N[C@@H](Cc4ccccc4)C(=O)N[C@H](C(=O)O)[C@@H](C)O)[C@@H](C)O)NC(=O)[C@H](Cc4ccc(O)cc4)NC(=O)[C@H](CCCCN)NC(=O)[C@H](CCSC)NC(=O)[C@H](CC(=O)O)NC(=O)[C@H](CCCNC(=N)N)NC(=O)[C@H](CCCCN)NC(=O)[C@H](CSSC[C@H](NC(=O)[C@H](CC(=O)O)NC(=O)CNC(=O)[C@H](Cc4ccccc4)NC1=O)C(=O)N[C@@H](CCC(=O)O)C(=O)N[C@@H](CCCCN)C(=O)N[C@@H](CC(=O)O)C(=O)N[C@@H](CCC(=O)O)C(=O)N[C@@H](CC(=O)O)C(=O)N3)NC(=O)CNC(=O)[C@H](CC(C)C)NC(=O)[C@H](Cc1c[nH]cn1)NC(=O)[C@H](CCCCN)NC2=O` [[K24D]Pnc1a] (H-DCRYMFGDCEKDEDCCKHLGCKRDMKYCAWDFTFT-OH; disulfide 2-16, 9-21, 15-28) was tested, and the IC50 (hNav1.6) was over 30 µM, the “Selectivity for Nav1.7, Nav subtype 1.6” value (hNav1.6; membrane potential assay) was 14 and the IC50 (hNav1.3) was 20 µM. The “Selectivity for Nav1.7, Nav subtype 1.3” value (hNav1.3; membrane potential assay) was 39, the “effect on the current voltage (IV) relationship of Nav1.7” value (hNav1.7 [3]) was “minimal effect” and the IC50 (hNav1.7 [4]) was 0.51 µM. For the same molecule, the “Selectivity for Nav1.7, Nav subtype 1.7” value (hNav1.7 [4]; membrane potential assay, reference subtype) was 1, the IC50 (hNav1.1) was 32 µM and the “Selectivity for Nav1.7, Nav subtype 1.1” value (hNav1.1; membrane potential assay) was 63. For the same molecule, the IC50 (hNav1.2) was 38 µM, the “Selectivity for Nav1.7, Nav subtype 1.2” value (hNav1.2; membrane potential assay) was 7 and the IC50 (hNav1.8) was over 30 µM. The “Selectivity for Nav1.7, Nav subtype 1.8” value (hNav1.8; membrane potential assay) was 40, the IC50 (hNav1.5) was over 30 µM and the “Selectivity for Nav1.7, Nav subtype 1.5” value (hNav1.5; membrane potential assay) was 59. For the same molecule, the IC50 (hNav1.4) was 12 µM and the “Selectivity for Nav1.7, Nav subtype 1.4” value (hNav1.4; membrane potential assay) was 24.

“ProTxII: Nav1.7 selective inhibitor (Peptides International) [reference compound]” was tested, and the “OD1-induced pain behaviours, compared to an equivalent concentration of Pnc1a” value [5] was “only partially reversed”.
